Reference: patent publication US7820649B2, “Quinazolinone and isoquinolinone acetamide derivatives” (N.V. Organon, priority 2006, dated 2010)

Each compound was assayed against T1, human V3 receptor (Homo sapiens, UniProt P47901) (assay: [3H]AVP binding to CHO cells stably expressing the human V3 receptor). Conditions: [3H]AVP 2.5x10^-9 mol/L.
T1 construct: expressed in transfected cells
T1 sequence (P47901 1-424): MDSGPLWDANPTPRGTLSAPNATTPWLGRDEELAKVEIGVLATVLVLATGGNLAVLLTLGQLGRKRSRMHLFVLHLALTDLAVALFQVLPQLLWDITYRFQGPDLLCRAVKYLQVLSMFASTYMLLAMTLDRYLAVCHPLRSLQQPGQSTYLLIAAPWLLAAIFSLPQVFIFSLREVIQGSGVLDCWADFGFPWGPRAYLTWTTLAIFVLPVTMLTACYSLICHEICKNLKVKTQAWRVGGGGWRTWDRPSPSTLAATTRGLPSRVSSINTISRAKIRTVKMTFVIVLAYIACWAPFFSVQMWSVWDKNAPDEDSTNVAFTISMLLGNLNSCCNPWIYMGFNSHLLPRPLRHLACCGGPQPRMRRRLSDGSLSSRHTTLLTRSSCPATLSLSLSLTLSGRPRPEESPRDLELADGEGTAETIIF
Experimental: Chinese Hamster Ovary (CHO) cells stably expressing the human V3 receptor were incubated to equilibrium with the test compound (at a final assay concentration of 10^−10 mol.L^−1 to 10^−5 mol.L^−1) and [^3H]AVP (at a final assay concentration of 2.5×10^−9 mol.L^−1). […] After washing with ice-cold phosphate buffered saline (PBS), scintillation fluid was added and the plates counted on a Topcount NXT apparatus.
A sigmoidal dose response curve (non-linear regression, variable slope) was plotted as concentration of test compound (mol.L^−1) against percentage specific binding of [^3H]AVP and a Ki value was calculated. Each determination was carried out in triplicate and repeated on at least 3 separate occasions

Structure (SMILES)	Ki
COc1cccc(-c2nc3ccc(N4CCNCC4)cc3c(=O)n2CC(=O)NC(C)C)c1 [Example 2b, N-Isopropyl-2-[2-(3-methoxyphenyl)-4-oxo-6-piperazin-1-yl-4H-quinazolin-3-yl]acetamide]	10 to 100 nM
CC(C)N1CCCN(c2ccc3nc(-c4cccc(Cl)c4)n(CC(=O)N(C)C(C)C)c(=O)c3c2)CC1 [Example 9u, 2-[2-(3-Chlorophenyl)-6-(4-isopropylperhydro-1,4-diazepin-1-yl)-4-oxo-4H-quinazolin-3-yl]-N-isopropyl-N-methylacetamide]	10 to 100 nM
COCC(C)NC(=O)Cn1c(-c2ccc(F)c(OC)c2)nc2ccc(N3CCN4CCC3CC4)cc2c1=O (centres unmarked) [Example 9Ah, 2-[6-(1,4-Diazabicyclo[3.2.2]non-4-yl)-2-(4-fluoro-3-methoxyphenyl)-4-oxo-4H-quinazolin-3-yl]-N-(2-methoxy-1-methylethyl)acetamide]	10 to 100 nM
COc1cccc(-c2nc3ccc(N4CCCN(CC(F)(F)F)CC4)cc3c(=O)n2CC(=O)NC(C)C)c1 [Example 4c, N-Isopropyl-2-{2-(3-methoxyphenyl)-4-oxo-6-[4-(2,2,2-trifluoroethyl)Perhydro-1,4-diazepin-1-yl]-4H-quinazolin-3-yl}acetamide]	100 to 1000 nM
COc1cccc(-c2nc3ccc(N4CCCC(CN(C)C)C4)cc3c(=O)n2CC(=O)NC(C)C)c1 (centres unmarked) [Example 3c, 2-[6-(3-Dimethylaminomethyl-piperidin-1-yl)-2-(3-methoxyphenyl)-4-oxo-4H-quinazolin-3-yl]-N-isopropylacetamide]	10 to 100 nM
CC(C)(C)NC(=O)Cn1c(C2CCCC2)nc2ccc(N3CCCNCC3)cc2c1=O [Example 7a]	10 to 100 nM
CC(C)NC(=O)Cn1c(-c2ccc(F)c(Cl)c2)nc2ccc(N3CCN(C)CC(C)(C)C3)cc2c1=O [Example 5s, 2-[2-(3-Chloro-4-fluorophenyl)-4-oxo-6-(4,6,6-trimethylperhydro-1,4-diazepin-1-yl)-4H-quinazolin-3-yl]-N-isopropylacetamide]	< 10 nM

Further lines, results first:

Ki	Structure (SMILES)
< 10 nM	COc1cccc(-c2nc3ccc(N4CCC[C@H](CN5CCCCC5)C4)cc3c(=O)n2CC(=O)NC(C)C)c1 [Example 3f, N-Isopropyl-2-[2-(3-methoxyphenyl)-4-oxo-6-((R)-3-piperidin-1-ylmethylpiperidin-1-yl)-4H-quinazolin-3-yl]acetamide]
< 10 nM	CC(C)NC(=O)Cn1c(-c2cccc(Cl)c2)nc2ccc(N3CCCNCC3)cc2c1=O [Example 1b, 2-[2-(3-Chlorophenyl)-4-oxo-6-perhydro-1,4-diazepin-1-yl-4H-quinazolin-3-yl]-N-isopropylacetamide]
< 10 nM	CC(C)NC(=O)Cn1c(-c2ccc(F)c(Cl)c2)nc2ccc(N3CCCN(CC(C)(C)C)CC3)cc2c1=O [Example 5Ac, 2-{2-(3-Chloro-4-fluorophenyl)-6-[4-(2,2-dimethylpropyl)perhydro-1,4-diazepin-1-yl]-4-oxo-4H-quinazolin-3-yl}-N-isopropylacetamide]
< 10 nM	COCCN1CCCN(c2ccc3nc(-c4cccc(OC)c4)n(CC(=O)NC(C)C)c(=O)c3c2)CC1 [Example 4d, N-Isopropyl-2-[6-[4-(2-methoxyethyl)perhydro-1,4-diazepin-1-yl]-2-(3-methoxyphenyl)-4-oxo-4H-quinazolin-3-yl]acetamide]
< 10 nM	CC(C)NC(=O)Cn1c(-c2cc(Cl)cc(OC(F)(F)F)c2)nc2ccc(N3CCCN(C(C)C)CC3)cc2c1=O [Example 6w, 2-[2-(3-Chloro-5-trifluoromethoxyphenyl)-6-(4-isopropylperhydro-1,4-diazepin-1-yl)-4-oxo-4H-quinazolin-3-yl]-N-isopropylacetamide]
< 10 nM	CCN1CCCN(c2ccc3nc(-c4ccc(F)c(OC)c4)n(CC(=O)NC(C)(C)C(F)(F)F)c(=O)c3c2)CC1 [Example 9h, 2-[6-(4-Ethylperhydro-1,4-diazepin-1-yl)-2-(4-fluoro-3-methoxyphenyl)-4-oxo-4H-quinazolin-3-yl]-N-(2,212-trifluoro-1,1-dimethylethyl)acetamide]

Each compound was assayed against T2, V3 receptor (Rattus norvegicus, UniProt P48974) (assay: Block of AVP-induced ACTH release from isolated rat anterior pituitary corticotrophs). Conditions: ACTH release after 3x10^-9 mol/L AVP for 120 minutes, ELISA; read-out: V3 receptor antagonism in isolated rat anterior pituitary cells.
T2 construct: Anterior pituitary corticotrophs were prepared from adult female Sprague-Dawley rats; endogenous in cells; host or cells: primary anterior pituitary corticotrophs from adult female Sprague-Dawley rats
T2 sequence (P48974 1-425): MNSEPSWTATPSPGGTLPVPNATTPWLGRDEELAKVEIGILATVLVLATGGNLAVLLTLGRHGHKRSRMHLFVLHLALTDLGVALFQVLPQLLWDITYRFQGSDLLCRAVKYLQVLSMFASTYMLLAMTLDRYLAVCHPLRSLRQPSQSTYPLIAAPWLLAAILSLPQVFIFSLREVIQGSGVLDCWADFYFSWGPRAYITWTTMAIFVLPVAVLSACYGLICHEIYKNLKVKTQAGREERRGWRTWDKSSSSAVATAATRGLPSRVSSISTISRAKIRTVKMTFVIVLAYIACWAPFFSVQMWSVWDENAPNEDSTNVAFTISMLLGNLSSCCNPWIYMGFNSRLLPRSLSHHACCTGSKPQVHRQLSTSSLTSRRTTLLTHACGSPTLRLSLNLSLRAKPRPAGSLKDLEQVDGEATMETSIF
Type: cell-based
Experimental: The ability of compounds of the invention to act as V3 antagonists in a physiologically relevant system was determined by measuring their ability to block the release of adrenocorticotropic hormone (ACTH) from anterior pituitary corticotrophs in response to treatment with arginine vasopressin (AVP).
Anterior pituitary corticotrophs were prepared from adult female Sprague-Dawley rats and seeded into 48 well plates. The cells were cultured for 4 days prior to exposure to compound. Test compounds were prepared at […] in 100% DMSO. Cells were exposed to a dose response of test compounds for 20 minutes (10^−8 mol.L^−1-10^−5 mol.L^−1). The final concentration of DMSO in the assay was kept constant at 0.3%. The cells were then exposed to 3×10^−9 mol.L^−1 AVP for 120 minutes. Supernatants were harvested and stored at −20° C. ACTH levels were subsequently measured by ELISA following the manufacturer's instructions (Immunodiagnostic systems, UK (Cat No. DX-SDX018)). Each treatment was carried out in quadruplicate and a mean value obtained for the amount of ACTH released. The degree of antagonism was then calculated as a percentage of the amount of ACTH released by agonist alone after adjustment for basal levels of ACTH. A pIC50 was calculated by fitting a Sigmoidal dose response (variable slope) curve with a non-linear (fit) to the data using the software package GraphPad prism. […]

IC50	Structure (SMILES)
10 to 100 nM	COc1cccc(-c2nc3ccc(N4CCCN(C(C)C)CC4)cc3c(=O)n2CC(=O)NC(C)C)c1 [Example 4b, N-Isopropyl-2-[6-(4-isopropylperhydro-1,4-diazepin-1-yl)-2-(3-methoxyphenyl)-4-oxo-4H-quinazolin-3-yl]acetamide]
